From patent US8362000B2, “Azetidinyl diamides as monoacylglycerol lipase inhibitors” (Janssen Pharmaceutica NV, priority 2009, dated 2013)
pKd: −log10 of the molar value.

Target: T1, mutant MGL (Homo sapiens, UniProt Q99685, L169S/L176S)
T1 sequence (Q99685 1-303 L169S/L176S): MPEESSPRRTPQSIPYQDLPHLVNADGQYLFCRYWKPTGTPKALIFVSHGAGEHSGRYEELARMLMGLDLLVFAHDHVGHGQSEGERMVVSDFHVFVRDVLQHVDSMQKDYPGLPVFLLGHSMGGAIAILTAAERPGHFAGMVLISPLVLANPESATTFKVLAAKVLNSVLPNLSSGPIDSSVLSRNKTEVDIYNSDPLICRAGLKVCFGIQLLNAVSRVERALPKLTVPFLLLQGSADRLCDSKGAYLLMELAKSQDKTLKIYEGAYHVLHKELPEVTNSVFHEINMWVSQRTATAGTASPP
Assay: MGL ThermoFluor assay - mutant
Format: binding
Settings: ThermoFluor concentration-response, read-out: MGL mutant ThermoFluor Kd
Method: The ThermoFluor (TF) assay is a 384-well plate-based binding assay that measures thermal stability of proteins^1,2. […] TF dye used in all experiments was 1,8-ANS (Invitrogen: A-47). Final TF assay conditions used for MGL studies were 0.07 mg/ml of mutant MGL, 100 μM ANS, 200 mM NaCl, 0.001% Tween-20 in 50 mM PIPES (pH=7.0).
Screening compound plates contained 100% DMSO compound solutions at a single concentration. […] Columns 12 and 24 were used as DMSO reference and contained no compound. […] Following compound dispension, protein and dye solutions were added to achieve the final assay volume of 3 μL.
Bar-coded assay plates were robotically loaded onto a thermostatically controlled PCR-type thermal block and then heated from 40 to 90° C. degrees at a ramp-rate of 1° C./min for all experiments. Fluorescence was measured by continuous illumination with UV light (Hamamatsu LC6), supplied via fiber optics and filtered through a band-pass filter (380-400 nm; >60D cutoff). Fluorescence emission of the entire 384-well plate was detected by measuring light intensity using a CCD camera (Sensys, Roper Scientific) filtered to detect 500±25 nm, resulting in simultaneous and independent readings of all 384 wells. A single image with 20-sec exposure time was collected at each temperature, and the sum of the pixel intensity in a given area of the assay plate was recorded vs temperature and fit to standard equations to yield the Tm^1. • 1.
For some experiments, quantitative NMR spectroscopy (qNMR) was used to measure concentration of the initial 100% DMSO compound solutions and, using the same fitting method, qKd values were determined

| SMILES | pKd |
| --- | --- |
| O=C(c1ccccc1)N1CCN(C2CN(C(=O)c3ccccc3C3CCNC3)C2)CC1 (stereo not drawn) [Cpd 456, 1-(Phenylcarbonyl)-4-{1-[(2-pyrrolidin-3-ylphenyl)carbonyl]azetidin-3-yl}piperazine] | < 4.12 |
| O=C(c1ccccc1)N1CCN(C2CN(C(=O)c3ccc(Cc4ccccc4)cc3)C2)C(CO)C1 (stereo not drawn) [Cpd 457, [1-{1-[(4-Benzylphenyl)carbonyl]azetidin-3-yl}-4-(phenylcarbonyl)piperazin-2-yl]methanol] | 5.32 |
| O=C(c1ccccc1)N1CCN(C2CN(C(=O)c3ccc(-c4ccccc4)cc3)C2)C(CO)C1 (stereo not drawn) [Cpd 458, {1-[1-(Biphenyl-4-ylcarbonyl)azetidin-3-yl]-4-(phenylcarbonyl)piperazin-2-yl}methanol] | 5.18 |
| O=C(c1ccc(Cc2ccccc2)cc1)N1CC(N2CCN(C(=O)c3ccccc3)C(CO)C2)C1 (stereo not drawn) [Cpd 459, [4-{1-[(4-Benzylphenyl)carbonyl]azetidin-3-yl}-1-(phenylcarbonyl)piperazin-2-yl]methanol] | 5.48 |
| O=C(c1ccc(-c2ccccc2)cc1)N1CC(N2CCN(C(=O)c3ccccc3)C(CO)C2)C1 (stereo not drawn) [Cpd 460, {4-[1-(Biphenyl-4-ylcarbonyl)azetidin-3-yl]-1-(phenylcarbonyl)piperazin-2-yl}methanol] | 5.04 |
| CSc1ccc(C(=O)N2CC(N3CCN(C(=O)c4ccccc4)CC3)C2)cc1 [Cpd 470, 1-(1-{[4-(Methylsulfanyl)phenyl]carbonyl}azetidin-3-yl)-4-(phenylcarbonyl)piperazine] | 5.53 |
| CC(=O)Oc1ccc(C(=O)N2CC(N3CCN(C(=O)c4nccs4)CC3)C2)cc1 [Cpd 471, 4-({3-[4-(1,3-Thiazol-2-ylcarbonyl)piperazin-1-yl]azetidin-1-yl}carbonyl)phenyl acetate] | 5.60 |
| CS(=O)(=O)c1ccc(C(=O)N2CC(N3CCN(C(=O)c4ccccc4)CC3)C2)cc1 [Cpd 472, 1-(1-{[4-(Methylsulfonyl)phenyl]carbonyl}azetidin-3-yl)-4-(phenylcarbonyl)piperazine] | 5.18 |
| O=C(c1ccccc1)N1CCN(C2CN(C(=O)c3cccnc3Oc3ccc(Cl)cc3)C2)CC1 [Cpd 474, 1-(1-{[2-(4-Chlorophenoxy)pyridin-3-yl]carbonyl}azetidin-3-yl)-4-(phenylcarbonyl)piperazine] | 5.30 |
| O=C(C#Cc1ccccc1)N1CC(N2CCN(C(=O)c3nccs3)CC2)C1 [Cpd 477] | 5.70 |
| O=C(c1ccccc1)C1CCC(C(=O)N2CC(N3CCN(C(=O)c4cscn4)CC3)C2)CC1 (stereo not drawn) [Cpd 478] | 5.70 |
| Cc1ccc(Sc2ncccc2C(=O)N2CC(N3CCN(C(=O)c4cscn4)CC3)C2)cc1 [Cpd 479] | 5.18 |
| CC(C)(C)OC(=O)Nc1ccc(C(=O)N2CC(N3CCN(C(=O)c4ccccc4)CC3)C2)cc1 [Cpd 496, tert-Butyl [4-({3-[4-(phenylcarbonyl)piperazin-1-yl]azetidin-1-yl}carbonyl)phenyl]carbamate] | 6.54 |
| O=C(c1ccccc1)N1CCN(C2CN(C(=O)C3CCC(C(F)(F)F)CC3)C2)CC1 (stereo not drawn) [Cpd 502] | < 4.12 |
| COc1cc(NCc2ccccc2)c(Cl)cc1C(=O)N1CC(N2CCN(C(=O)c3ccccc3)CC2)C1 [Cpd 529] | 6.50 |
| O=C(c1ccccc1)N1CCN(C2CN(C(=O)c3cccc(NCc4ccccc4)c3)C2)CC1 [Cpd 531, N-Benzyl-3-({3-[4-(phenylcarbonyl)piperazin-1-yl]azetidin-1-yl}carbonyl)aniline] | 5.56 |
| O=C(c1ccccc1)N1CCN(C2CN(C(=O)c3ccc(Oc4ccc(Br)cn4)cc3)C2)CC1 [Cpd 532] | 5.63 |
| O=C(c1ccccc1)N1CCN(C2CN(C(=O)c3ccc(Oc4ccccn4)c(F)c3)C2)CC1 [Cpd 537] | 5.48 |
| O=C(Nc1cccc(C(=O)N2CC(N3CCN(C(=O)c4ccccc4)CC3)C2)c1)C1CCCCC1 [Cpd 539, N-[3-({3-[4-(Phenylcarbonyl)piperazin-1-yl]azetidin-1-yl}carbonyl)phenyl]cyclohexanecarboxamide] | < 4.51 |
| O=C(c1ccccc1)N1CCN(C2CN(C(=O)c3ccc(N4CCOCC4)cc3)C2)CC1 [Cpd 541, 4-[4-({3-[4-(Phenylcarbonyl)piperazin-1-yl]azetidin-1-yl}carbonyl)phenyl]morpholine] | 5.78 |
| O=C(c1ccccc1)N1CCN(C2CN(C(=O)c3ccc(CNc4ccccc4F)cc3)C2)CC1 [Cpd 553] | 6.43 |
| O=C(c1ccccc1)N1CCN(C2CN(C(=O)c3ccc(SCc4cccnc4)cc3)C2)CC1 [Cpd 555] | 5.70 |
| Cc1nc(COc2ccc(Cl)cc2)sc1C(=O)N1CC(N2CCN(C(=O)c3ccccc3)CC2)C1 [Cpd 558, 1-[1-({2-[(4-Chlorophenoxy)methyl]-4-methyl-1,3-thiazol-5-yl}carbonyl)azetidin-3-yl]-4-(phenylcarbonyl)piperazine] | 6.48 |
| O=C(c1ccccc1)N1CCN(C2CN(C(=O)c3cccc(CNc4ccccc4F)c3)C2)CC1 [Cpd 561] | 6.27 |

More lines, now with the values ahead:

| pKd | SMILES |
| --- | --- |
| 6.60 | O=C(c1ccccc1)N1CCN(C2CN(C(=O)C3CCC(c4ccc(Cl)cc4)CC3)C2)CC1 (stereo not drawn) [Cpd 503] |
| 6.60 | O=C(c1ccccc1)N1CCN(C2CN(C(=O)c3ccc(Oc4cccc(Cl)c4)cc3)C2)CC1 [Cpd 426] |
| 6.70 | O=C(c1ccccc1)N1CCN(C2CN(C(=O)c3ccc(Oc4ccc(Cl)cc4)cc3)C2)CC1 [Cpd 425] |
| 6.70 | O=C(c1ccc(O[C@H]2CCN(C(=O)N3CCCC3)C2)c(I)c1)N1CC(N2CCN(C(=O)c3nccs3)CC2)C1 [Cpd 452] |
| 6.74 | O=C(c1ccccc1)N1CCN(C2CN(C(=O)c3ccc(CSc4cccc(Cl)c4)cc3)C2)CC1 [Cpd 551] |
| 6.78 | O=C(c1ccccc1)N1CCN(C2CN(C(=O)c3ccc(NCc4ccccc4Cl)cc3)C2)CC1 [Cpd 492, N-(2-Chlorobenzyl)-4-({3-[4-(phenylcarbonyl)piperazin-1-yl]azetidin-1-yl}carbonyl)aniline] |
| 6.94 | O=C(c1ccccc1)N1CCN(C2CN(C(=O)c3ccc(CNc4ccc(F)c(F)c4F)cc3)C2)CC1 [Cpd 557] |
| 7.00 | O=C(c1ccccc1)N1CCN(C2CN(C(=O)c3ccc(NCc4ccc5ccccc5c4)cc3)C2)CC1 [Cpd 491, N-(Naphthalen-2-ylmethyl)-4-({3-[4-(phenylcarbonyl)piperazin-1-yl]azetidin-1-yl}carbonyl)aniline] |
| 7.00 | O=C(c1ccccc1)N1CCN(C2CN(C(=O)c3ccc(NCc4ccc(F)c(C(F)(F)F)c4)cc3)C2)CC1 [Cpd 494, N-[4-Fluoro-3-(trifluoromethyl)benzyl]-4-({3-[4-(phenylcarbonyl)piperazin-1-yl]azetidin-1-yl}carbonyl)aniline] |
| 7.01 | O=C(c1ccccc1)N1CCN(C2CN(C(=O)c3ccc(CNc4c(F)cccc4F)cc3)C2)CC1 [Cpd 556] |
| 7.05 | O=C(c1ccccc1)N1CCN(C2CN(C(=O)c3ccc(NC4CCC(F)(F)CC4)cc3)C2)CC1 [Cpd 530] |
| 7.22 | O=C(c1ccccc1)N1CCN(C2CN(C(=O)c3ccc(CNc4cccc(Cl)c4)cc3)C2)CC1 [Cpd 549] |
| 7.30 | O=C(c1ccccc1)N1CCN(C2CN(C(=O)c3ccc(O[C@H]4CCN(C(=O)N5CCCC5)C4)c(I)c3)C2)CC1 [Cpd 450, 1-{1-[(3-Iodo-4-{[(3S)-1-(pyrrolidin-1-ylcarbonyl)pyrrolidin-3-yl]oxy}phenyl)carbonyl]azetidin-3-yl}-4-(phenylcarbonyl)piperazine] |
| 7.31 | O=C(c1ccccc1)N1CCN(C2CN(C(=O)c3sc4cc(F)ccc4c3C3CC3)C2)CC1 [Cpd 528] |
| 7.60 | O=C(c1nccs1)N1CCN(C2CN(C(=O)C3CCC(c4ccccc4)CC3)C2)CC1 (stereo not drawn) [Cpd 475] |
| 7.60 | O=C(c1ccccc1)N1CCN(C2CN(C(=O)c3ccc(NCc4ccc(Cl)c(Cl)c4)cc3)C2)CC1 [Cpd 493, N-(3,4-Dichlorobenzyl)-4-({3-[4-(phenylcarbonyl)piperazin-1-yl]azetidin-1-yl}carbonyl)aniline] |
| 7.83 | O=C(c1ccc(CSc2cccc(Cl)c2)cc1)N1CC(N2CCN(C(=O)c3nccs3)CC2)C1 [Cpd 454] |
| 8.07 | O=C(c1ccc(CNc2cccc(Cl)c2)cc1)N1CC(N2CCN(C(=O)c3nccs3)CC2)C1 [Cpd 455] |
| 8.30 | O=C(c1ccc(Oc2ccc(Cl)cc2)cc1)N1CC(N2CCN(C(=O)c3nccs3)CC2)C1 [Cpd 420, 1-(1-{[4-(4-Chlorophenoxy)phenyl]carbonyl}azetidin-3-yl)-4-(1,3-thiazol-2-ylcarbonyl)piperazine] |
| 8.40 | O=C(c1ccc(Oc2cccc(Cl)c2)cc1)N1CC(N2CCN(C(=O)c3nccs3)CC2)C1 [Cpd 421, 1-(1-{[4-(3-Chlorophenoxy)phenyl]carbonyl}azetidin-3-yl)-4-(1,3-thiazol-2-ylcarbonyl)piperazine] |

Same assay, conditions: ThermoFluor thermal stability binding assay, read-out: MGL mutant ThermoFluor Kd

| pKd | SMILES |
| --- | --- |
| < 4.12 | CC(=O)Nc1nc(C(=O)N2CCN(C3CN(C(=O)c4ccc(-c5ccccc5)cc4)C3)CC2)cs1 [Cpd 480] |
| 7.70 | O=C(c1ccccc1)N1CCN(C2CN(C(=O)c3ccc(OCc4cccc(Cl)c4Cl)c(F)c3)C2)CC1 [Cpd 483] |
| 5.59 | CC(C)(C)OC(=O)N1CCC(c2cccc(C(=O)N3CC(N4CCN(C(=O)c5ccccc5)CC4)C3)c2)CC1 [Cpd 538] |
| 4.91 | CC(=O)N1CCC(c2ccc(C(=O)N3CC(N4CCN(C(=O)c5ccccc5)CC4)C3)cc2)CC1 [Cpd 546] |
| 6.40 | O=C(c1ccccc1)N1CCN(C2CN(C(=O)c3ccc(OCc4cccc(Br)n4)cc3)C2)CC1 [Cpd 552] |
| 5.70 | O=C(c1ccccc1)N1CCN(C2CN(C(=O)c3ccc(OCc4cncc(Cl)c4)cc3)C2)CC1 [Cpd 554] |
| 6.19 | O=C(c1ccccc1)N1CCN(C2CN(C(=O)c3ccc(OCc4ccc5ccccc5n4)cc3)C2)CC1 [Cpd 560] |
